Data from PubChem BioAssay (NCI).
“And” between values parts separate entries of the source, which are not always exact repeats. Identical values can stand only once.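 A five-concentration, 48-hour dose response in 96-well plates underlies each endpoint, interpolated linearly between surrounding concentrations. Here, GI50 denotes the concentration required for 50% inhibition of growth. TGI denotes the concentration required for complete inhibition of growth.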

Key:
Test in all cases: DTP human tumour cell line panel, 48 h
HOP-62 NSCLC = test system: HOP-62 NSCLC
786-0 renal = test system: 786-0 renal
ACHN renal = test system: ACHN renal
SNB-75 CNS = test system: SNB-75 CNS
LOX IMVI melanoma = test system: LOX IMVI melanoma
NCI-H522 lung = test system: NCI-H522 lung
TK-10 renal = test system: TK-10 renal
M14 melanoma = test system: M14 melanoma
CCRF-CEM leukemia = test system: CCRF-CEM leukemia
IGROV1 ovarian = test system: IGROV1 ovarian

SMILES	GI50 (HOP-62 NSCLC) [µM]	TGI (HOP-62 NSCLC) [µM]	GI50 (786-0 renal) [µM]	TGI (786-0 renal) [µM]	GI50 (ACHN renal) [µM]	TGI (ACHN renal) [µM]	GI50 (SNB-75 CNS) [µM]	TGI (SNB-75 CNS) [µM]	GI50 (LOX IMVI melanoma) [µM]	TGI (LOX IMVI melanoma) [µM]	GI50 (NCI-H522 lung) [µM]	TGI (NCI-H522 lung)	GI50 (TK-10 renal) [µM]	TGI (TK-10 renal) [µM]	GI50 (M14 melanoma) [µM]	TGI (M14 melanoma) [µM]	GI50 (CCRF-CEM leukemia) [µM]	TGI (CCRF-CEM leukemia) [µM]	GI50 (IGROV1 ovarian) [µM]	TGI (IGROV1 ovarian) [µM]
CCCN1CCC(c2ccc(Nc3nc(Nc4cc(F)ccc4C(N)=O)c4cc[nH]c4n3)c(OC)c2)CC1	2.71	5.84	3.07	7.52	3.13	7.03	4	7.55	0.365	5.84	3.42	6.69 µM	1.07	6.33	1.58	5.48	1.16	20.3	1.87	7.44
O=C1NC(c2cccc(OCc3ccccc3)c2)Nc2ccccc21 (centres undefined)		26.3		38.8		28.7		0.896		17.5		0.636 µM		> 75.7		38.8		3.99		93.7
O=[N+]([O-])c1ccc(Sc2ccncn2)c([N+](=O)[O-])c1	4.47	15.8	2.24	4.89	2.16	5.82	2.82	13.1	1.97	5.21	0.291	0.987 µM	3.03	9.88	1.64	3.3	0.504	6.13	2.23	5.3
C/C(=N/Nc1nc(C)cc(=O)[nH]1)C(=O)O		> 100		> 100		> 100		> 100		> 100		> 100 µM		> 100		> 100		> 100		> 100
[O-]c1c2c(nn1-c1ccc(Cl)cc1)c1ccccc1c[n+]2Cc1ccccc1		> 100		> 100		> 100		69.2		> 100		> 100 µM		> 100		> 100		> 100		> 100
CCCCCC[C@H](C)NC(=O)c1ccc(Nc2nc3ccccc3c3occc23)cc1	3.39	12.9	2.35	7.71	13.7	40	3.99	7.69	11.4	24.3	2.5	5.74 µM	5.26	33.5	2.25	5.37	3.68	> 100	2.46	5.77
CCOC(=O)C(C(O)c1ccc([N+](=O)[O-])cc1)P(=O)(OCC)OCC (centres undefined)		> 100		> 100		> 100		> 100		> 100		> 100 µM		> 100		> 100		> 100		> 100
C[CH2][Sn]([CH2]C)([O]C(=O)c1ccc(OC)c(OC)c1OC)[O]C(=O)c1ccc(OC)c(OC)c1OC	> 100	> 100	58.6	> 100	51.4	> 78.9	19.1	62.8	27.2	> 69.7	2.42	8.54 µM	52.6	> 68.2	61.9	> 100	13.9	56.8	> 100	> 100
CN(C)CCOC(=O)Nc1nc2ccc(Sc3ccccc3)cc2[nH]1	3.94	15.5	3.8	15	6.52	19.2	1.98	7.66	4.26	15.9	2.58	10.8 µM	11	25.5	2.28	9.29	2.67	16.3	6.32	27.6
Nc1c(F)cc(-c2nc3cc(F)ccc3[se]2)cc1Br	1.83	> 100	10.6	50.4	2	> 100	3.23	> 63	14.1	> 100	10.6	> 100 µM	0.17	0.61	16.5	> 100	> 100	> 100	0.0127	27.4
CCn1ccc(NS(=O)(=O)c2ccc(N)cc2)nc1=O	> 100	> 100	> 100	> 100	> 100	> 100	> 100	> 100	> 100	> 100	> 100	> 100 µM	> 100	> 100	> 100	> 100	> 100	> 100	> 100	> 100
[CH3][Sn]([CH3])([CH3])[O][N+](=O)[O-]	6.41	> 10	1.92	3.51	> 10	> 10	> 10	> 10	2.52	6.63	1.64	3.07 µM	> 10	> 10	6.33	> 10	2.19	6.9	2.39	> 10
CCN=C(C#N)NCC		> 100		> 100		> 100		> 100		> 100		> 100 µM		> 100		> 100		> 100		> 100
O=C(/C=C/OC(=O)c1cccc(Cl)c1)c1ccc(Cl)cc1	> 100	> 100	> 91.7	> 100	52.3	> 100	17.3	73.5	36.5	> 100	> 93.3	> 100 µM	32.7	> 100	34.6	> 100	37.5	> 100	> 46.8	> 100
FC(F)(F)c1cc(Nc2ccc3cc(OCCCN4CCOCC4)ccc3n2)ccc1Cl	1.87	3.63	1.3	2.81	2.05	4.86	1.61	3.92	1.53	2.99	2.04	3.82 µM	2.64	5.86	1.71	3.66	2.03	9.18	2.62	7.49
O=C(O)Cc1cccc2c(=O)c3cccc([N+](=O)[O-])c3oc12		> 100		> 100		> 100		> 100		> 100		> 100 µM		> 100		> 100		> 100		> 100
CCOCc1cc(=O)c2c(OC)cc3c(c2o1)CCC(C)(C)O3		> 100		> 100		> 100		> 100		> 100		> 100 µM		> 100		> 100		> 100		> 100
Cn1cnc([N+](=O)[O-])c1Sc1nccc(=O)[nH]1		> 100		> 100		> 100		> 100		> 100		> 100 µM		> 100		> 100		> 100		> 100
COc1ccc2c(c1OC(C)=O)C1=CC(=O)CCC13CCNC3C2 (centres undefined)		> 100		> 100		> 100		> 100		> 100		> 100 µM		> 100		> 100		> 100		> 100
Cc1ccc(S(=O)(=O)N2CCc3ccc(O)c4c3C2Cc2ccc3c(c2-4)OCO3)cc1 (centres undefined)	1.89	27.9	0.894	20.8	0.769	> 60.8	0.288	9.59	0.635	4.68	0.393	2.08 µM	3.48	29.2	0.511	3.86	0.847	> 27.6	0.708	14.2
CCN(Cc1ccc(F)cc1)c1ccc(CO)c(OC)c1	40.8	> 100	21.4	65.1	17.1	53.7	11.6	> 100	27.8	> 100	6.61	20 µM	2.14	16.8	31.1	> 100	21.2	72	6.62	27.8
CCOP1(=O)C=C(C)C(=C(Cl)Cl)C(C)=C1 (centres undefined)		40.6		> 100		68.1	30	> 100	22.8	> 100	5.57	7.79 µM and 18.9 µM		77.2	10.7	24.6		68.6		90.9
COc1cc2c(cc1C)NC(=O)/C2=C\c1c[nH]c2ccccc12	17.9	56.8	17.8	49.2	11.5	27.3	4.12	22.9	11.4	29.3	12.2	28.9 µM	14.1	46.5	12.7	46.1	10.3	> 100	4.44	33.6
CN(C)c1ccc(N=C2C=CC(=O)c3ccccc32)cc1	2.19	6.62	15.2	32.5	4.1	18.4	1.8	4.86	1.78	4.13	1.97	4.51 µM	17	31	1.79	3.61	2.13	6.17	2.76	9.28
CCC[CH2][Pb]([Cl])([CH2]CCC)[CH2]CCC	0.128	0.258	0.0177	0.037	0.0221	0.0558	0.0215	0.114	0.0223	0.045	0.0321	0.104 µM	0.0317	0.0913	0.0192	0.0417	0.0553	1.15	0.0603	0.179
COC(=O)/C(=N\NC(N)=O)C(C(=O)C=C(C)C)C(=O)C(=O)Nc1ccc(Cl)c(Cl)c1 (centres undefined)		> 100		> 100		> 100		> 100		> 100		> 100 µM		> 100		> 100		> 100		> 100
C#Cc1cccc(NC(=O)c2ccc(NC(=O)CCl)cc2)c1	68.3	> 82.5	14.6	29.8	26.3	> 82.5	17.2	> 82.5	11.2	23.5	13.5	35 µM	42.7	> 82.5	22.2	> 82.5	7.37	32.4	10.6	23.7
COCc1c(-c2ccc(NC(=O)Nc3cc(C(F)(F)F)ccc3F)c(F)c2)c2c(N)ncnn2c1CN1CCOCC1	2.05	7.1	2.76	> 10	1.48	> 10	0.492	3.25	1.36	5.77	1.76	4.05 µM	1.29	7.53	1.5	> 10	1.95	7.96	0.438	7.06
CC1CC[P+](c2ccccc2)(c2ccccc2)CC1		> 100		> 100		> 100		> 100		> 100		> 100 µM		> 100		> 100		> 100		> 100
CCCCN(CCCC)CCCn1cnc2ncccc2c1=O		> 100		> 100		> 100		> 100		> 100		> 100 µM		> 100		> 100		> 100		> 100
